From patent US12162888B2, “Carboxamides as ubiquitin-specific protease inhibitors” (Valo Early Discovery, Inc., priority 2018, dated 2024)
Like-named read-outs stand apart in the source and are kept apart here.

Biological target: T1, USP28 (His-tagged USP28-FL-mammalian) (Homo sapiens, UniProt Q96RU2)
T1 construct: Expression of USP28 (1-1077)-TEV-6*His (pTT5 vector) was carried out in Expi293f cells; made in house; host or cells: Expi293F cells (pTT5 vector)
T1 sequence (Q96RU2 1-1077): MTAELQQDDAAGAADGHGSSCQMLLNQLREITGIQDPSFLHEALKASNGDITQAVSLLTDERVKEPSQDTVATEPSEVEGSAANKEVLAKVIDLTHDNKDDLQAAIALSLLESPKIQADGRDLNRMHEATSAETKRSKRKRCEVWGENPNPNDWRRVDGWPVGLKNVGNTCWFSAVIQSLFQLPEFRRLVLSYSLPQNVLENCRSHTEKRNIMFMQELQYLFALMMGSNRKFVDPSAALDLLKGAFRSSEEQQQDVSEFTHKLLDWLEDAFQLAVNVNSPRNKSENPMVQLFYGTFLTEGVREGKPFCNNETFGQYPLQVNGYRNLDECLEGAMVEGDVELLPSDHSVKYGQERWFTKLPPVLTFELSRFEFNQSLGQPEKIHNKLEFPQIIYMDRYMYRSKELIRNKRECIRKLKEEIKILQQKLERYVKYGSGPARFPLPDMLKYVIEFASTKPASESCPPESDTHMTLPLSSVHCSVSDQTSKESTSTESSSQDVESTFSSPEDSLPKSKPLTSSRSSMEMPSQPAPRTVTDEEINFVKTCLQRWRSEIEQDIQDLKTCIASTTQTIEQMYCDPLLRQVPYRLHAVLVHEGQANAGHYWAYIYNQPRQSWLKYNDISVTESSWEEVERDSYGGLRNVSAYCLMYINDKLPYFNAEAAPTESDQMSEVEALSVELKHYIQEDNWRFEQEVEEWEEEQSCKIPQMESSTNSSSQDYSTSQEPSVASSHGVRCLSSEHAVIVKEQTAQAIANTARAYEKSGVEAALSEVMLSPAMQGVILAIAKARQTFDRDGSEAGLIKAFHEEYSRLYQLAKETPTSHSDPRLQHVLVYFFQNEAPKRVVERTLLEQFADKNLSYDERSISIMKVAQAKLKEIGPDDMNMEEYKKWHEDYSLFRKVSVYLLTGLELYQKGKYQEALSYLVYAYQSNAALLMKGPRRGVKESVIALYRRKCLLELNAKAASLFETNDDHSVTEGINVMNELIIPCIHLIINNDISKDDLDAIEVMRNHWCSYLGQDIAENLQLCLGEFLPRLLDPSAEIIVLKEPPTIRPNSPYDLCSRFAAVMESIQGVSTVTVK
Assay: Ubiquitin-Rhodamine 110 Assay for USP28 Activity, Example A-1(a)
Assay type: biochemical
Details: Ubiquitin-Rhodamine 110 assay
How it was run: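 Full-length His-tagged human USP28 (1-1077), expressed in Expi293F cells, was used at […] with 25 nM Ub-Rh110 (<<Km) in 20 mM Tris pH 8.0, 3 mM BME, 0.03% BGG and 0.01% Triton X-100. Compounds (25 μM-1.3 nM, 10-point) were preincubated with enzyme for 30 min, and the reaction ran 45 min at room temperature before a citric acid stop. Fluorescence was read at 485/535 nm, and IC50 came from 4-parameter fits of percent inhibition.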

[1] = read-out: USP28 A-1(a) IC50 range
[2] = biochemical IC50 range, read-out: USP28 A-1(a)

Compound `[2H]C1([2H])c2c(F)cc(N3CCNCC3)cc2OC[C@@H]1NC(=O)c1sc2nc(C)ccc2c1N` (single isomer, unassigned) [Example 33-1] has an IC50 [1] of 1 to 50 nM.
Compound `[2H]C1([2H])c2c(F)cc(N3CCNCC3)cc2OC[C@H]1NC(=O)c1sc2nc(C)ccc2c1N` (single isomer, unassigned) [Example 33-2] has an IC50 [1] of 200 to 2000 nM.
`CCn1ccc2cc(C(=O)N[C@H]3CCc4nc(N5C[C@@H](COC)[C@@H](N)C5)ccc4C3)cnc21` (single isomer, unassigned) [Example 400] gave an IC50 [1] of 200 to 2000 nM.
In the case of `CCn1ccc2cc(C(=O)N[C@H]3CCc4nc(N5C[C@H](COC)[C@H](N)C5)ccc4C3)cnc21` (single isomer, unassigned) [Example 401], the IC50 [1] is reported as 200 to 2000 nM.
`Cc1ccc2c(N)c(C(=O)N[C@H]3COc4cc(N5C[C@H](CF)[C@H](N)C5)ccc4C3)sc2n1` (single isomer, unassigned) [Example 424] showed an IC50 [1] of 1 to 50 nM.
`Cc1ccc2c(N)c(C(=O)N[C@H]3COc4cc(N5C[C@H](N)[C@@]6(CCOC6)C5)ccc4C3)sc2n1` (single isomer, unassigned) [Example 439] gave an IC50 [1] of 1 to 50 nM.
Work on `Cc1ccc2c(N)c(C(=O)N[C@H]3CCc4c(F)c(N5CC6CCC(C5)N6)cc(F)c4C3)sc2n1` (single isomer, unassigned) [Example 603] yielded an IC50 [2] of 1 to 50 nM.
With `COC1CN(c2ccc3c(c2)CC[C@H](NC(=O)c2sc4nc(C)cnc4c2N)C3)CC1N` (stereo in doubt) [Example 130, 7-amino-N-[(2S)-6-[(3S,4S)-3-amino-4-methoxypyrrolidin-1-yl]-1,2,3,4-tetrahydronaphthalen-2-yl]-3-methylthieno[2,3-b]pyrazine-6-carboxamide] the IC50 [2] was 50 to 200 nM.
`Cc1ccc2c(N)c(C(=O)N[C@H]3COc4cc(N5C[C@H]6CC[C@@H]5CN6)ncc4C3)sc2n1` [Example 76, N-((R)-7-((1R,4R)-2,5-diazabicyclo[2.2.2]octan-2-yl)-3,4-dihydro-2H-pyrano[3,2-c]pyridin-3-yl)-3-amino-6-methylthieno[2,3-b]pyridine-2-carboxamide] was tested, and the IC50 [1] was 1 to 50 nM.
`CO[C@H]1CN(c2ccc3c(c2)OC[C@H](NC(=O)c2sc4nc(C)cnc4c2N)C3)C[C@@H]1N` [Example 117] showed an IC50 [1] of 1 to 50 nM.
In the case of `CO[C@H]1CN(c2ccc3c(c2)OC[C@H](NC(=O)c2sc4nc(C)sc4c2N)C3)CC1N` (stereo partly drawn) [Example 118, 6-amino-N-[(3R)-7-[(3,4S)-3-amino-4-methoxypyrrolidin-1-yl]-3,4-dihydro-2H-1-benzopyran-3-yl]-2-methylthieno[2,3-d][1,3]thiazole-5-carboxamide], the IC50 [1] is reported as 50 to 200 nM.
In the case of `CO[C@H]1CN(c2ccc3c(c2)CC[C@H](NC(=O)c2sc4nc(C)ccc4c2N)C3)C[C@H]1N` [Example 144, 3-amino-N-[(2S)-6-[(3R,4S)-3-amino-4-methoxypyrrolidin-1-yl]-1,2,3,4-tetrahydronaphthalen-2-yl]-6-methylthieno[2,3-b]pyridine-2-carboxamide], the IC50 [2] is reported as 50 to 200 nM.
`CO[C@@H]1CN(c2ccc3c(c2)OC[C@H](NC(=O)c2sc4nc(C)cnc4c2N)C3)C[C@@H]1N` [Example 147, 7-amino-N-[(3R)-7-[(3S,4R)-3-amino-4-methoxypyrrolidin-1-yl]-3,4-dihydro-2H-1-benzopyran-3-yl]-3-methylthieno[2,3-b]pyrazine-6-carboxamide] showed an IC50 [2] of 50 to 200 nM.
In the case of `N#Cc1c(N2CC3CCC(C2)N3)cc(F)c2c1OC[C@H](NC(=O)c1cnc3c(c1)[C@@H]1CC1CN3)C2` (stereo partly drawn) [Example 228, (6aS,7aR)-N-[(3R)-8-cyano-7-(3,8-diazabicyclo[3.2.1]octan-3-yl}-5-fluoro-3,4-dihydro-2H-1-benzopyran-3-yl]-5H,6H,6aH,7H,7aH-cyclopropa[c]1,8-naphthyridine-2-carboxamide], the IC50 (IC50 ranges, read-out: USP28 A-1(a) IC50) is reported as 200 to 2000 nM.
With `COC[C@@]1(C)CN(c2ccc3c(n2)CC[C@H](NC(=O)c2sc4nc(C)ccc4c2N)C3)C[C@H]1N` [Example 343, 3-amino-N-[(6S)-2-[(3S,4S)-4-amino-3-(methoxymethyl)-3-methylpyrrolidin-1-yl]-5,6,7,8-tetrahydroquinolin-6-yl]-6-methylthieno[2,3-b]pyridine-2-carboxamide] the IC50 [1] was 50 to 200 nM.
`Cc1ccc2c(N)c(C(=O)N[C@H]3CCc4nc(N5C[C@H](N)[C@@]6(CCOC6)C5)ccc4C3)sc2n1` [Example 437, 3-amino-N-[(6S)-2-[(5R,9R)-9-amino-2-oxa-7-azaspiro[4.4]nonan-7-yl]-5,6,7,8-tetrahydroquinolin-6-yl]-6-methylthieno[2,3-b]pyridine-2-carboxamide] gave an IC50 [1] of 50 to 200 nM.
`Cc1ccc2c(N)c(C(=O)N[C@H]3CCc4nc(N5C[C@@H](N)[C@]6(CCOC6)C5)ccc4C3)sc2n1` [Example 438, 3-amino-N-[(6S)-2-[(5S, 9S)-9-amino-2-oxa-7-azaspiro[4.4]nonan-7-yl]-5,6,7,8-tetrahydroquinolin-6-yl]-6-methylthieno[2,3-b]pyridine-2-carboxamide] was tested, and the IC50 [1] was 50 to 200 nM.
`CN[C@H]1CN(c2ccc3c(n2)CC[C@H](NC(=O)c2sc4nc(C)ccc4c2N)C3)C[C@H]1CF` [Example 441, 3-amino-N-[(6S)-2-[(3R,4R)-3-(fluoromethyl)-4-(methylamino)pyrrolidin-1-yl]-5,6,7,8-tetrahydroquinolin-6-yl]-6-methylthieno[2,3-b]pyridine-2-carboxamide] showed an IC50 [1] of 50 to 200 nM.
`CN[C@@H]1CN(c2ccc3c(n2)CC[C@H](NC(=O)c2sc4nc(C)ccc4c2N)C3)C[C@@H]1CF` [Example 442, 3-amino-N-[(6S)-2-[(3S,4S)-3-(fluoromethyl)-4-(methylamino)pyrrolidin-1-yl]-5,6,7,8-tetrahydroquinolin-6-yl]-6-methylthieno[2,3-b]pyridine-2-carboxamide] gave an IC50 [1] of 50 to 200 nM.
Work on `Cc1ccc2c(N)c(C(=O)N[C@@H]3CCc4nc(N5C[C@@H](CF)[C@@H](N)C5)ncc4C3)sc2n1` [Example 445, 3-amino-N-[(6R)-2-[(3R,4R)-3-amino-4-(fluoromethyl)pyrrolidin-1-yl]-5,6,7,8-tetrahydroquinazolin-6-yl]-6-methylthieno[2,3-b]pyridine-2-carboxamide] yielded an IC50 [1] of 200 to 2000 nM.
For `Cc1ccc2c(N)c(C(=O)N[C@@H]3CCc4nc(N5C[C@H](CF)[C@H](N)C5)ncc4C3)sc2n1` [Example 446, 3-amino-N-[(6R)-2-[(3S,4S)-3-amino-4-(fluoromethyl)pyrrolidin-1-yl]-5,6,7,8-tetrahydroquinazolin-6-yl]-6-methylthieno[2,3-b]pyridine-2-carboxamide], the IC50 [1] was 200 to 2000 nM.
In the case of `Cc1ccc2c(N)c(C(=O)N[C@H]3COc4cc(N5C[C@H](N)[C@]6(CCOC6)C5)ccc4C3)sc2n1` [Example 656, 3-amino-N-[(3R)-7-[(5S,9R)-9-amino-2-oxa-7-azaspiro[4.4]nonan-7-yl]-3,4-dihydro-2H-1-benzopyran-3-yl]-6-methylthieno[2,3-b]pyridine-2-carboxamide], the IC50 [2] is reported as 1 to 50 nM.
Work on `Cc1ccc2c(N)c(C(=O)N[C@H]3CCc4cc(N5C[C@H](CF)[C@H](N)C5)ccc4C3)sc2n1` [Example 657, 3-amino-N-[(2S)-6-[(3S,4S)-3-amino-4-(fluoromethyl)pyrrolidin-1-yl]-1,2,3,4-tetrahydronaphthalen-2-yl]-6-methylthieno[2,3-b]pyridine-2-carboxamide] yielded an IC50 [2] of 50 to 200 nM.
`Cc1ccc2c(N)c(C(=O)N[C@H]3COc4cc(N5C[C@H](N)[C@](C)(CF)C5)ccc4C3)sc2n1` [Example 658, 3-amino-N-[(3R)-7-[(3R,4R)-4-amino-3-(fluoromethyl)-3-methylpyrrolidin-1-yl]-3,4-dihydro-2H-1-benzopyran-3-yl]-6-methylthieno[2,3-b]pyridine-2-carboxamide] showed an IC50 [2] of 1 to 50 nM.
`Cc1ccc2c(N)c(C(=O)N[C@H]3COc4cc(N5C[C@H](N)[C@@](C)(CF)C5)ccc4C3)sc2n1` [Example 659, 3-amino-N-[(3R)-7-[(3S,4R)-4-amino-3-(fluoromethyl)-3-methylpyrrolidin-1-yl]-3,4-dihydro-2H-1-benzopyran-3-yl]-6-methylthieno[2,3-b]pyridine-2-carboxamide] was tested, and the IC50 [2] was 1 to 50 nM.
